# Assay results from patent US6620828B2, “Thiazole compounds and pharmaceutical compositions for inhibiting protein kinases and methods for their use” (Agouron Pharmaceuticals, Inc., priority 1999, dated 2003).
# Legend:
# [1] = target: T1, FL-CHK1 (Homo sapiens, UniProt O14757); experiment: CHK1 assay; format: biochemical; set-up: CHK1^b: unit not given here; conditions: Table A combinatorial examples; footnote b not given
# T1 construct: C-terminally His-tagged full-length human CHK1 (FL-CHK1); 6xHis (C); made in house; host or cells: baculovirus/insect cells
# T1 sequence (O14757 1-476): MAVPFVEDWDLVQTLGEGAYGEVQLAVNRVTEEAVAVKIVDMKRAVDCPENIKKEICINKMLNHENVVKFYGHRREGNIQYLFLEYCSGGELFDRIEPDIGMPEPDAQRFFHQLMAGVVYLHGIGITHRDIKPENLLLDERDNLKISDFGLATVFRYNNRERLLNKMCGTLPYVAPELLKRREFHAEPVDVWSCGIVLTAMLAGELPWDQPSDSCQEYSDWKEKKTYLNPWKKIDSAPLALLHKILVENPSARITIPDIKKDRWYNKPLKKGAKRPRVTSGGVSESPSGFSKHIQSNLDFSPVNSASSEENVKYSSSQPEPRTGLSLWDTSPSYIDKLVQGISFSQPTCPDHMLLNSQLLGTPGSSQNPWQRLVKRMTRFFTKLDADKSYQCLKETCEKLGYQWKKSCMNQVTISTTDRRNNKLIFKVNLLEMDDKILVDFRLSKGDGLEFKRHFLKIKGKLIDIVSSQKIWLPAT
# Description: CHK-1 Construct for Assay: C-terminally His-tagged full-length human CHK1 (FL-CHK1) was expressed using the baculovirus/insect cell system. It contains 6 histidine residues (6×His-tag) at the C-terminus of the 476 amino acid human CHK1. The protein was purified by conventional chromatographic techniques.
# The production of ADP from ATP that accompanies phosphoryl transfer to the synthetic substrate peptide Syntide-2 ([…]) was coupled to oxidation of NADH using phosphoenolpyruvate (PEP) through the actions of pyruvate kinase (PK) and lactic dehydrogenase (LDH). The oxidation of NADH was monitored by following the decrease of absorbance at 340 nm (ε340=6.22 cm^−1 mM^−1) using a HP8452 spectrophotometer. Typical reaction solutions contained: […]; 0.15 mM NADH; 28 units of LDH/ml; 16 units of PK/ml; 3 mM DTT; 0.125 mM Syntide-2; 0.15 mM ATP; 25 mM MgCl2 in 50 mM TRIS, pH 7.5; and 400 mM NaCl. Assays were initiated with 10 nM of FL-CHK1. Ki values were determined by measuring initial enzyme activity in the presence of varying concentrations of test compounds. The data were analyzed using Enzyme Kinetic and Kaleidagraph software.
# [2] = target: CDK2/Cyclin A complex (Homo sapiens, UniProt P24941); experiment: CDK2/Cyclin A assay; format: biochemical; set-up: CDK2^c: concentration or dose not given beside the values; conditions: Table A combinatorial examples; footnote c not given
# Description: CDK2/Cyclin A Construct for Assay: CDK2 was purified using published methodology (Rosenblatt et al., J. Mol. Biol., 230, 1317-1319 (1993)) from insect cells that had been infected with a baculovirus expression vector. Cyclin A was purified from E. coli cells expressing full-length recombinant cyclin A, and a truncated cyclin A construct was generated by limited proteolysis and purified as described previously (Jeffrey et al., Nature, 376, 313-320 (Jul. 27, 1995)).
# CDK2/Cyclin A and CDK4/Cyclin D Assays
# Cyclin-dependent kinase activity was measured by quantifying the enzyme-catalyzed, time-dependent incorporation of radioactive phosphate from [^32P]ATP into a recombinant fragment of the retinoblastoma protein. Unless noted otherwise, assays were performed in 96-well plates in a total volume of 50 μL, in the presence of 10 mM HEPES (N-[2-hydroxyethyl]piperazine-N′-[2-ethanesulfonic acid]) (pH 7.4), 10 mM MgCl2, 25 μM adenosine triphosphate (ATP), 1 mg/mL ovalbumin, 5 μg/mL leupeptin, 1 mM dithiothreitol, 10 mM β-glycerophosphate, 0.1 mM sodium vanadate, 1 mM sodium fluoride, 2.5 mM ethylene glycol-bis(β-aminoethyl ether)-N,N,N′N′-tetraacetic acid (EGTA), 2% (v/v) dimethylsulfoxide, and 0.03-0.2 μCi [^32P]ATP. The substrate (0.3-0.5 μg) was purified recombinant retinoblastoma protein fragment (Rb) (residues 386-928 of the native retinoblastoma protein; 62.3 kDa, containing the majority of the phosphorylation sites found in the native 106-kDa protein, as well as a tag of six histidine residues for ease of purification). Reactions were initiated with CDK2 (150 nM CDK2/Cyclin A complex) or CDK4 (50 nM CDK4/Cyclin D3 complex), incubated at 30° C., and terminated after 20 minutes by the addition of ethylenediaminetetraacetic acid EDTA) to 250 mM. The phosphorylated substrate was then captured on a nitrocellulose membrane using a 96-well filtration manifold, and unincorporated radioactivity was removed by repeated washing with 0.85% phosphoric acid. Radioactivity was quantified by exposing the dried nitrocellulose membranes to a phosphorimager. Apparent Ki values were measured by assaying enzyme activity in the presence of different compound concentrations and subtracting the background radioactivity measured in the absence of enzyme. The kinetic parameters (kcat, Km for ATP) were measured for each enzyme under the usual assay conditions by determining the dependence of initial rates on ATP concentration. The data were fit to an equation for competitive inhibition using Kaleidagraph (Synergy Software), or were fit to an equation for competitive tight-binding inhibition using the software KineTic (BioKin, Ltd.). Measured Ki values for known inhibitors against CDK4 and CDK2 agreed with published IC50 values. The specific activity of CDK4 was the same whether complexed to full-length cyclin D3 or the truncated Cyclin D3 construct; both complexes also yielded very similar Ki values for selected inhibitors.
CHK1^b [1],CDK2^c [2],Compound
20,−3.5,COc1ccccc1-c1csc(-c2sc(Nc3cc(OC)c(OC)c(OC)c3)nc2N)n1
3.7,−2.1,COc1cc(Nc2nc(N)c(-c3nc(-c4ccc(C)cc4)cs3)s2)cc(OC)c1OC
11.2,0.1,COc1cc(Nc2nc(N)c(-c3nc(-c4ccc(Cl)cc4)cs3)s2)cc(OC)c1OC
36.6,1.9,COc1cc(Nc2nc(N)c(-c3nc(-c4ccccc4[N+](=O)O)cs3)s2)cc(OC)c1OC
15.2,−14.4,COc1cc(Nc2nc(N)c(-c3nc(-c4ccc([N+](=O)[O-])cc4)cs3)s2)cc(OC)c1OC
11.7,−4.4,COc1cc(Nc2nc(N)c(-c3nc(-c4ccc(Cl)c(C)c4)cs3)s2)cc(OC)c1OC
18.7,20.4,COc1cc(Nc2nc(N)c(-c3nc(-c4ccc(-c5ccccc5)cc4)cs3)s2)cc(OC)c1OC
10.3,15.6,COc1cc(Nc2nc(N)c(-c3nc(-c4ccc(C#N)cc4)cs3)s2)cc(OC)c1OC
31.3,3.8,COc1cc(Nc2nc(N)c(-c3nc(-c4ccc(Cl)cc4Cl)cs3)s2)cc(OC)c1OC
17.9,13.6,COc1cc(Nc2nc(N)c(-c3nc(-c4c(-c5ccccc5)noc4C)cs3)s2)cc(OC)c1OC
48.3,35,COc1cc(Nc2nc(N)c(-c3nc(-c4ccc(F)cc4)cs3)s2)cc(OC)c1OC
31.3,14.3,COc1cc(Nc2nc(N)c(-c3nc(-c4ccc[nH]4)cs3)s2)cc(OC)c1OC
16.5,−5,COc1cc(Nc2nc(N)c(-c3nc(-c4ccc(F)c(F)c4)cs3)s2)cc(OC)c1OC
8.8,6.6,COc1cc(Nc2nc(N)c(-c3nc(-c4cccc([N+](=O)[O-])c4)cs3)s2)cc(OC)c1OC
27.9,28.4,COc1cc(Nc2nc(N)c(-c3nc(-c4cc(C)c(O)c(C)c4)cs3)s2)cc(OC)c1OC
12,−1.2,COc1cc(Nc2nc(N)c(-c3nc(-c4ccc(C)cc4C)cs3)s2)cc(OC)c1OC
23.9,−12.3,COc1cc(Nc2nc(N)c(-c3nc(-c4cccc(OC(=O)c5ccccc5)c4)cs3)s2)cc(OC)c1OC
21.2,−0.4,COc1cccc(-c2csc(-c3sc(Nc4cc(OC)c(OC)c(OC)c4)nc3N)n2)c1
41.4,4.4,CCOC(=O)c1ccccc1-c1csc(-c2sc(Nc3cc(OC)c(OC)c(OC)c3)nc2N)n1
2.7,11.2,COc1cc(Nc2nc(N)c(-c3nc(-c4cc(-c5ccccc5)no4)cs3)s2)cc(OC)c1OC
30.9,−7.5,COc1cc(Nc2nc(N)c(-c3nc(-c4cc(F)c(C)c(Cl)c4)cs3)s2)cc(OC)c1OC
8.9,11.3,CCCCCc1ccc(-c2csc(-c3sc(Nc4cc(OC)c(OC)c(OC)c4)nc3N)n2)cc1
−7.4,1.6,COc1cc(Nc2nc(N)c(-c3nc(-c4ccccc4OC(C)=O)cs3)s2)cc(OC)c1OC
1.3,6.3,CCN(CC)c1ccc(-c2csc(-c3sc(Nc4cc(OC)c(OC)c(OC)c4)nc3N)n2)cc1
13.2,9.1,COc1cc(Nc2nc(N)c(-c3nc(-c4csc5ccccc45)cs3)s2)cc(OC)c1OC
13.5,15.6,COc1cc(Nc2nc(N)c(-c3nc(-c4cccc(Br)c4)cs3)s2)cc(OC)c1OC

# More lines, now with the values behind:
Compound,CHK1^b [1],CDK2^c [2]
COc1cc(Nc2nc(N)c(-c3nc(-c4ccc5ccccc5c4)cs3)s2)cc2c1OCCO2,9.2,11.6
COc1cc(Nc2nc(N)c(-c3nc(-c4cc(Br)c(Cl)s4)cs3)s2)cc(OC)c1OC,32,−0.2
COc1cc(Nc2nc(N)c(-c3nc(-c4ccc(-c5ccc(Cl)cc5Cl)o4)cs3)s2)cc(OC)c1OC,23,12.4
COc1ccc(-c2csc(-c3sc(Nc4cc(OC)c(OC)c(OC)c4)nc3N)n2)c(OC)c1,9.9,4.9
COc1ccc(OC)c(-c2csc(-c3sc(Nc4cc(OC)c(OC)c(OC)c4)nc3N)n2)c1,6.1,12.2
CCOC(=O)c1cc(-c2csc(-c3sc(Nc4cc(OC)c(OC)c(OC)c4)nc3N)n2)on1,2.7,23.2
COc1cc(Nc2nc(N)c(-c3nc(-c4ccc5c(c4)OCCO5)cs3)s2)cc2c1OCCO2,32.9,5.4
COc1cc(Nc2nc(N)c(-c3nc(-c4ccc(OC(=O)c5ccccc5)cc4)cs3)s2)cc(OC)c1OC,22.3,14.6
COc1cc(Nc2nc(N)c(-c3nc(-c4ccc(Cl)c(Cl)c4)cs3)s2)cc(OC)c1OC,12.1,7.3
COc1cc(Nc2nc(N)c(-c3nc(-c4c(Cl)c(Cl)nc(Cl)c4Cl)cs3)s2)cc(OC)c1OC,48.8,10.3
COc1cc(Nc2nc(N)c(-c3nc(-c4ccc(CC(=O)O)s4)cs3)s2)cc(OC)c1OC,41.9,26.7
COc1cc(OC)c(-c2csc(-c3sc(Nc4cc(OC)c(OC)c(OC)c4)nc3N)n2)c(O)c1Cl,56,11.8
COc1cc(Nc2nc(N)c(-c3nc(-c4ccc5oc6ccccc6c5c4)cs3)s2)cc2c1OCCO2,34.1,19
COc1cc(Nc2nc(N)c(-c3nc(-c4c(C)c(C)c(C)c(C)c4C)cs3)s2)cc(OC)c1OC,48.3,19.8
COc1cc(Nc2nc(N)c(-c3nc(-c4cc(-c5ccc(Cl)c(Cl)c5)no4)cs3)s2)cc(OC)c1OC,0.9,17.5
COc1cc(Nc2nc(N)c(-c3nc(-c4c(Cl)cc(C(F)(F)F)cc4Cl)cs3)s2)cc(OC)c1OC,26.2,−6
COc1cc(Nc2nc(N)c(-c3nc(-c4cc(C(=O)C(Cl)(Cl)Cl)n(C)c4)cs3)s2)cc(OC)c1OC,6.4,3.9
COc1cc(Nc2nc(N)c(-c3nc(-c4cc5cc(Cl)ccc5o4)cs3)s2)cc2c1OCCO2,25.4,−6
